Source: publication PMC10610379, “Epidrugs as Promising Tools to Eliminate Plasmodium falciparum Artemisinin-Resistant and Quiescent Parasites” (Pharmaceutics, 2023)
“And” between values parts separate entries of the source, which are not always exact repeats. Equal entries are not always repeated. Where two headings read alike, the source gives them in different places.

Tests used:
[1] = tested on: HFF; conditions: read-out: Cytotoxicity: CC50 (HFF), data from literature ref 48; cited from earlier work
[2] = tested on: H4K20me3; assay: Immunoblotting, histone mark abundance in F32-ART parasites; assay type: cell-based, Plasmodium falciparum
Experimental: (§1) Abundance of methylated and acetylated histone was determined in parasite cultures in different conditions: “not-treated”, “DHA 24 h”, “DHA 6 h/DHA 24 h” and “DHA 6 h/DHA + compound to be tested 24 h”. At the end of the treatments, parasite cultures were washed in RPMI-1640 and then twice in PBS 1× before red blood cell lysis with 0.075% saponin (Sigma-Aldrich) in PBS. Parasite ghosts were washed 3 times in PBS before incubating the ghosts with E1A lysis buffer (50 mM Hepes pH 7.5; 250 mM NaCl; 5 mM EDTA; 0.1% Triton X-100, 1 mM DTT, 0.2 mM PMSF supplemented with complete Mini EDTA-free protease inhibitor cocktail (Roche®, Basel, Switzerland)) for 15 min. Ghosts were then sonicated for 3 × 15s ON/OFF cycles to shear parasite membranes. Debris were pelleted by centrifuging for 15 min at 13,800× g and 4 °C, and supernatants (containing parasitic proteins) were then collected. Protein concentrations were determined using BCA assay (Bio-Rad, Hercules, CA, USA) according to the manufacturer’s instructions. For each sample, 10 µg of proteins were mixed with 4× sample buffer (10 mL 50% Glycerol, 5 mL 0.5 M Tris HCl pH 6.8, 4 mL 20% SDS, 0.02% Bromophenol blue for a total solution volume of 20 mL) and 100 mM DTT and then separated on 15% SDS-PAGE gels in Laemmli running buffer. Gels were then wet-transferred O/N at 20 V onto PVDF membranes. Membranes were blocked in TBST for 1 h at room temperature. Bottom parts were then probed with histone antibodies while upper parts were probed with PFALDOLASE antibody (Abcam, ab38905, Cambridge, UK) at 1:20,000 dilution. The following primary antibodies were used: anti-H3K4me1 (Abcam, ab8895); anti-H3K4me2 (Abcam, ab35356); anti-H3K9me2 (Abcam, ab1220); anti-H3K9me3 (Millipore, 07-442, Burlington, MA, USA); anti-tetra-acetyl H4 (Millipore, 06-866); anti-H4K8Ac (Millipore, 07-328); anti-H4K20me3 (Abcam, ab9053); anti-H3K4me3 (Diagenode) and anti-H3K9Ac (Millipore, 07-352) at 1:10,000. The following secondary antibodies were used: anti-rabbit IgG-Peroxidase produced in goat (Sigma-Aldrich) or anti-mouse IgG-Peroxidase (Sigma-Aldrich); at 1:20,000 dilutions. Blots were developed using ECL Prime Western Blotting (GE Healthcare, Chicago, IL, USA) and read on a Chemidoc touch imaging software. Densitometry analysis was performed by using ImageLab software from Bio-Rad. To determine if variations in histone abundances were statistically significant, immunoblotting experiments were performed on 3 biological replicates and each run was performed twice.

[3] = tested on: H3K4me1; assay: as above; assay type: cell-based, Plasmodium falciparum
Experimental: as §1

[4] = tested on: H3K4me2; assay: as above; assay type: cell-based, Plasmodium falciparum
Experimental: as §1

[5] = tested on: H3K4me3; assay: as above; assay type: cell-based, Plasmodium falciparum
Experimental: as §1

[6] = tested on: Plasmodium falciparum F32-TEM (artemisinin-sensitive twin line); assay: Standard chemosensitivity assay (SYBR Green I), F32-TEM; assay type: cell-based; conditions: read-out: Antiplasmodial Activity: IC50, F32-TEM
Experimental: (§2) They differ by eight mutations in seven genes (PF3D7_0110400, PF3D7_1343700, PF3D7_0213400, PF3D7_1115700, PF3D7_1302100, PF3D7_1459600, PF3D7_1464500) among them the M476I mutation on the kelch13 gene. F32-ART and F32-TEM strains have RSA^0–3 h values up to 12% and less than 0.1%, respectively. […] Both strains were cultured, in the same conditions, according to the Trager and Jensen protocol with modifications. Briefly, parasites were cultivated in RPMI-1640 medium (Biowest) at 2% hematocrit in human red blood cells and 5% human serum (EFS, French Blood Bank) under 5% CO2 in a humid atmosphere at 37 °C.
(§3) The antimalarial activities of the compounds were evaluated on both strains. […] Antimalarial activities were determined with the SYBR Green I method. Each drug concentration was tested in triplicate. The parasites were incubated with the drugs for 48 h. Plates were read on a BioTek FLX800 Microplate Fluorescence Reader (Bio-Tek instruments, Winooski, VT, USA) (λexcitation = 485 nm, λemission = 528 nm). Control parasite culture (i.e., RPMI with 0.5% DMSO) was referred to as 100% growth. IC50 and IC90 values were determined using GraphPad Prism version 7.05 (GraphPad Software, San Diego, CA, USA). Results were the mean of 3 independent experiments. When it is relevant, statistical significance between results obtained with both parasite strains was determined by a Mann–Whitney test using GraphPad Prism version 7.05.

[7] = tested on: ART-resistant parasites F32-ART at the quiescent stage; assay: Quiescent-stage Survival Assay (QSA), 48-h exposure; assay type: cell-based, Plasmodium falciparum
Experimental: The sensitivity of the ART-resistant parasites F32-ART at the quiescent stage towards the different molecules was determined using the QSA (Quiescent-stage Survival Assay), as previously described.
Epidrugs were tested at their IC90 values. In the present study, quiescence was induced using 3 µM of ART or 700 nM of DHA [28]. Thus, D-sorbitol synchronized ring-stage parasites at 3% parasitemia and 2% hematocrit (5 mL of culture per well in 6-well plates) were first exposed to 6 h of ART or DHA to induce quiescence and then to 48 h of the combination “ART or DHA + compound to be tested”. The combinations “ART 6 h/ART 48 h” or “DHA 6 h/DHA 48 h” were used as controls. The compounds were evaluated, in parallel, on proliferating parasites, i.e., without any pre-treatment. After drug exposure, parasite cultures were washed with 40 mL of RPMI-1640 medium and cultured in drug-free conditions supplemented with 10% human serum in new wells. The parasitemia for each condition was then microscopically monitored every 2 days. Culture media were renewed twice a week and 25 µL of fresh red blood cells were added once a week. Obtained data were used to perform Kaplan–Meier survival analyses considering censored data. The outcome was defined as the day when parasite cultures reached the initial parasitemia (3%) and data were considered as censored if no parasite recrudescence was observed during the 30-day experiment timeframe. When relevant, statistical significance between results obtained for the conditions “ART/ART” and “ART/ART + compound to be tested” or “DHA/DHA” and “DHA/DHA + compound to be tested” was determined by a Log Rank (Mantel Cox) test using GraphPad Prism version 7.05. For the best compounds targeting histones, in order to compare western blots data, modified QSAs were carried out by comparing “DHA 6 h/DHA 24 h” versus “DHA 6 h/DHA + compound to be tested 24 h”.

[8] = tested on: Plasmodium falciparum F32-ART (artemisinin-resistant strain); assay: Standard chemosensitivity assay (SYBR Green I), F32-ART; assay type: cell-based; conditions: for IC50: read-out: Antiplasmodial Activity: IC50, F32-ART
Experimental: as §2, §3

[9] = tested on: H4K8ac; assay: Immunoblotting, histone mark abundance in F32-ART parasites; assay type: cell-based, Plasmodium falciparum; conditions: 700nM DHA alone, F32-ART ring stage; 3 replicates (Fig 3D)
Experimental: as §1

[10] = tested on: H4ac4; assay: as above; assay type: cell-based, Plasmodium falciparum; conditions: 700nM DHA alone, F32-ART ring stage; 3 replicates (Fig 3D)
Experimental: as §1

[11] = tested on: MCF7; conditions: MCF7 cancer; data from literature ref 42; read-out: Cytotoxicity: CC50 (MCF7 cancer); cited from earlier work
[12] = 90nM, 24 h, F32-ART ring stage proliferating, 3 replicates (Fig 3B)
[13] = 90nM, DHA 6 h/DHA + BIX-01294 24 h, F32-ART DHA-treated parasites, 3 replicates (Fig 3F)
[14] = Plasmodium falciparum, F32, 48 h
[15] = 700nM DHA alone, F32-ART ring stage, 3 replicates (Fig 3D)

COc1cc2nc(N3CCCN(C)CC3)nc(NC3CCN(Cc4ccccc4)CC3)c2cc1OC [BIX-01294]
CC50 [1]: 6.1 µM | Fold change of H4K20me3 abundance, BIX-01294 vs DMSO [2, 12]: significantly decreased level and 0.69 and 0.64 and 0.72 | Fold change of H4K20me3 abundance, BIX-01294, quiescent stage [2, 13]: did not induce a quantifiable change and 0.66 and 1.37 and 0.84 | Fold change of H3K4me1 abundance, BIX-01294 vs DMSO [3, 12]: significantly decreased level and 0.58 and 0.68 and 0.70 | Fold change of H3K4me1 abundance, BIX-01294, quiescent stage [3, 13]: did not induce a quantifiable change and 1.47 and 1.13 and 0.70 | Fold change of H3K4me2 abundance, BIX-01294 vs DMSO [4, 12]: significantly decreased level and 0.66 and 0.68 and 0.73 | Fold change of H3K4me2 abundance, BIX-01294, quiescent stage [4, 13]: did not induce a quantifiable change and 1.57 and 0.88 and 0.79 | Fold change of H3K4me3 abundance, BIX-01294 vs DMSO [5, 12]: significantly decreased level and 0.89 and 0.88 and 0.80 | Fold change of H3K4me3 abundance, BIX-01294, quiescent stage [5, 13]: did not induce a quantifiable change and 1.11 and 1.28 and 0.96 | IC50 [6, 14]: 0.055 ± 0.014 µM | Delay in parasite recrudescence time (difference between median recrudescence times), ART/ART + compound vs ART/ART ([7]; quiescence induced with ART 3 µM 6 h, then 48 h ART + compound at its IC90): 8.5 days | Delay in recrudescence time, DHA/DHA + compound vs DHA/DHA ([7]; quiescence induced with DHA 700 nM 6 h, then 48 h DHA + compound at its IC90): slightly shorter delay | IC50 [8, 14]: 0.056 ± 0.008 µM | Selectivity Index CC50/IC50 ([8]; ratio cytotoxicity (mammalian cell type of the CC50)/antiplasmodial activity on F32-ART): 110

C[C@H]1[C@@H](O)O[C@@H]2O[C@@]3(C)CC[C@H]4[C@H](C)CC[C@@H]1[C@@]24OO3 [DHA, Dihydroartemisinin]
Fold change of H4K20me3 abundance, DHA vs DMSO [2, 15]: increase and 1.51 and 1.65 | Fold change of H3K4me1 abundance, DHA vs DMSO [3, 15]: 1.02 and 1.53 and 1.51 | Fold change of H4K8ac abundance, DHA vs DMSO [9]: increased level and 2.03 and 2.07 and 2.15 | Fold change of H3K4me2 abundance, DHA vs DMSO [4, 15]: 1.36 and 1.49 and 1.08 | Fold change of H3K4me3 abundance, DHA vs DMSO [5, 15]: 0.71 and 0.98 and 0.76 | Fold change of H4ac4 abundance, DHA vs DMSO [10]: increased level and 2.04 and 2.38 and 1.70

O=C(CCCCCCC(=O)N[c-]1cccc1)NO.[Fe+2].c1cc[cH-]c1 [JAHA]
CC50 [11]: 2.4 µM | IC50 ([6]; F32-TEM, 48 h incubation, SYBR Green I, mean ± SEM of 3 experiments (* mean of 2)): 0.69 ± 0.08 µM | IC50 ([8]; F32-ART, 48 h incubation, SYBR Green I, mean ± SEM of 3 experiments (* mean of 2)): 0.46 ± 0.03 µM
